Reference: publication PMC9668928, “Zandelisib (ME-401) in Japanese patients with relapsed or refractory indolent non-Hodgkin’s lymphoma: an open-label, multicenter, dose-escalation phase 1 study” (International Journal of Hematology, 2022)

System: Japanese patients with R/R iNHL
Assay: Phase 1 dose-escalation study: safety and tolerability (TEAEs, DLTs)
Format: in vivo
From the text: Japanese patients aged ≥ 20 years with R/R iNHL histologically confirmed as FL, nodal MZL, extra-nodal MZL of mucosa-associated lymphoid tissue, small lymphocytic lymphoma, lymphoplasmacytic lymphoma, Waldenström’s macroglobulinemia, or equivalent, according to World Health Organization classification, were eligible for this study. Other key eligibility criteria included being PI3K inhibitor therapy-naïve and an Eastern Cooperative Oncology Group performance status of 0 or 1. Further details of inclusion and exclusion criteria are provided in Supplementary Table 1.
This was a multicenter, open-label, dose-escalation, phase 1 study in Japan. All patients received oral zandelisib once daily at the same time each day, at least 1 h before or 2 h after a meal (CS: continuous schedule). Each treatment cycle was 28 days. Definitions of the DLTs described in this study can be found in Supplementary Table 2. The observation period for DLTs was from day 1 of Cycle 1 to day 1 of Cycle 2. Zandelisib was administered until disease progression or unacceptable toxicity. In the event of an AE, patients could be switched to IDT. In the case of disease progression while receiving IDT, patients could be switched back to CS per the investigator’s discretion.
A starting dose of 45 mg was set for investigating patient safety. This study adopted a standard 3 + 3 design. […] If DLTs occurred in 2 or more patients, the study was planned to be suspended pending a safety evaluation. If a DLT occurred in 1 patient, 3 further patients were added to cohort 1. If DLTs occurred in 0/3 or 1/6 patients in cohort 1, dosing in cohort 2 commenced (n = 6; 60 mg/day). If the incidence of DLTs in cohort 2 was ≤ 1/6, the maximum tolerated dose was not determined, and the dose in cohort 2 was to be selected as the recommended Japanese phase 2 dose.
The primary endpoint was the safety [number of patients with treatment-emergent adverse events (TEAEs), based on Common Terminology Criteria for Adverse Events version 5.0] and tolerability (including laboratory values, vital signs, and electrocardiogram performance) of zandelisib in Japanese patients. Hepatobiliary disorder, aspartate/alanine (AST/ALT) increased, diarrhea/colitis, organizing pneumonia, stomatitis, or rash were defined as irAEs in this manuscript. Secondary endpoints included PK (plasma concentrations and PK parameters) and the efficacy of zandelisib. […] The PK parameters for Cycle 1 day 1 and Cycle 2 day 1 were calculated for each patient by non-compartmental analysis. PK parameters included maximum plasma drug concentration (Cmax), area under the plasma concentration–time curve (AUC) from time zero to the last measurable point (AUC0–t), the AUC from time zero to infinity (AUC0-inf), and terminal half-life (t1/2).

CN1CCC(c2ccccc2CC(C)(C)Nc2nc(N3CCOCC3)nc(-n3c(C(F)F)nc4ccccc43)n2)CC1 [zandelisib]
TEAE Cytomegalovirus viremia, Grade ≥ 3 (Total, N = 9): 0 n (%) | TEAE Decreased appetite, All grades (Total, N = 9): 1 (11.1) n (%) | TEAE Decreased appetite, Grade ≥ 3 (Total, N = 9): 1 (11.1) n (%) | TEAE Diarrhea, All grades (Total, N = 9): 4 (44.4) n (%) | TEAE Diarrhea, Grade ≥ 3 (Total, N = 9): 3 (33.3) n (%) | TEAE Drug hypersensitivity, All grades (Total, N = 9): 1 (11.1) n (%) | TEAE Drug hypersensitivity, Grade ≥ 3 (Total, N = 9): 0 n (%) | TEAE Drug-induced liver injury, All grades (Total, N = 9): 1 (11.1) n (%) | TEAE Drug-induced liver injury, Grade ≥ 3 (Total, N = 9): 1 (11.1) n (%) | TEAE Dry eye, All grades (Total, N = 9): 1 (11.1) n (%) | TEAE Dry eye, Grade ≥ 3 (Total, N = 9): 0 n (%) | TEAE Dry skin, All grades (Total, N = 9): 2 (22.2) n (%) | TEAE Dry skin, Grade ≥ 3 (Total, N = 9): 0 n (%) | TEAE Dysgeusia, All grades (Total, N = 9): 1 (11.1) n (%) | TEAE Dysgeusia, Grade ≥ 3 (Total, N = 9): 0 n (%) | TEAE Dyspnea, All grades (Total, N = 9): 1 (11.1) n (%) | TEAE Dyspnea, Grade ≥ 3 (Total, N = 9): 1 (11.1) n (%) | TEAE Ear and labyrinth disorders (SOC), All grades (Total, N = 9): 1 (11.1) n (%) | TEAE Ear and labyrinth disorders (SOC), Grade ≥ 3 (Total, N = 9): 0 n (%) | TEAE Eczema, All grades (Total, N = 9): 1 (11.1) n (%) | TEAE Eczema, Grade ≥ 3 (Total, N = 9): 0 n (%) | TEAE Eosinophil count increased, All grades (Total, N = 9): 1 (11.1) n (%) | TEAE Eosinophil count increased, Grade ≥ 3 (Total, N = 9): 0 n (%) | TEAE Erythema multiforme, All grades (Total, N = 9): 1 (11.1) n (%) | TEAE Erythema multiforme, Grade ≥ 3 (Total, N = 9): 0 n (%) | TEAE Eye disorders (SOC), All grades (Total, N = 9): 2 (22.2) n (%) | TEAE Eye disorders (SOC), Grade ≥ 3 (Total, N = 9): 0 n (%) | TEAE Flank pain, All grades (Total, N = 9): 1 (11.1) n (%) | TEAE Flank pain, Grade ≥ 3 (Total, N = 9): 0 n (%) | TEAE GGT increased, All grades (Total, N = 9): 1 (11.1) n (%) | TEAE GGT increased, Grade ≥ 3 (Total, N = 9): 1 (11.1) n (%) | TEAE Gastrointestinal disorders (SOC), All grades (Total, N = 9): 6 (66.7) n (%) | TEAE Gastrointestinal disorders (SOC), Grade ≥ 3 (Total, N = 9): 4 (44.4) n (%) | TEAE General disorders and administration site conditions (SOC), All grades (Total, N = 9): 1 (11.1) n (%) | TEAE General disorders and administration site conditions (SOC), Grade ≥ 3 (Total, N = 9): 0 n (%) | TEAE Hepatic function abnormal, All grades (Total, N = 9): 2 (22.2) n (%) | TEAE Hepatic function abnormal, Grade ≥ 3 (Total, N = 9): 1 (11.1) n (%) | TEAE Hepatobiliary disorders (SOC), All grades (Total, N = 9): 3 (33.3) n (%) | TEAE Hepatobiliary disorders (SOC), Grade ≥ 3 (Total, N = 9): 2 (22.2) n (%) | TEAE Herpes simplex, All grades (Total, N = 9): 1 (11.1) n (%) | TEAE Herpes simplex, Grade ≥ 3 (Total, N = 9): 0 n (%) | TEAE Herpes zoster, All grades (Total, N = 9): 1 (11.1) n (%) | TEAE Herpes zoster, Grade ≥ 3 (Total, N = 9): 0 n (%) | TEAE Hypoesthesia, All grades (Total, N = 9): 1 (11.1) n (%) | TEAE Hypoesthesia, Grade ≥ 3 (Total, N = 9): 0 n (%) | TEAE Hypogammaglobulinemia, All grades (Total, N = 9): 2 (22.2) n (%) | TEAE Hypogammaglobulinemia, Grade ≥ 3 (Total, N = 9): 0 n (%) | TEAE Immune system disorders (SOC), All grades (Total, N = 9): 3 (33.3) n (%) | TEAE Immune system disorders (SOC), Grade ≥ 3 (Total, N = 9): 0 n (%) | TEAE Infections and infestations (SOC), All grades (Total, N = 9): 6 (66.7) n (%) | TEAE Infections and infestations (SOC), Grade ≥ 3 (Total, N = 9): 0 n (%) | TEAE Infusion site extravasation, All grades (Total, N = 9): 1 (11.1) n (%) | TEAE Infusion site extravasation, Grade ≥ 3 (Total, N = 9): 0 n (%) | TEAE Insomnia, All grades (Total, N = 9): 1 (11.1) n (%) | TEAE Insomnia, Grade ≥ 3 (Total, N = 9): 0 n (%) | TEAE Investigations (SOC), All grades (Total, N = 9): 9 (100.0) n (%) | TEAE Investigations (SOC), Grade ≥ 3 (Total, N = 9): 6 (66.7) n (%) | TEAE Joint effusion, All grades (Total, N = 9): 1 (11.1) n (%) | TEAE Joint effusion, Grade ≥ 3 (Total, N = 9): 0 n (%) | TEAE Lymphocyte count decreased, All grades (Total, N = 9): 3 (33.3) n (%) | TEAE Lymphocyte count decreased, Grade ≥ 3 (Total, N = 9): 1 (11.1) n (%) | TEAE Metabolism and nutrition disorders (SOC), All grades (Total, N = 9): 1 (11.1) n (%) | TEAE Metabolism and nutrition disorders (SOC), Grade ≥ 3 (Total, N = 9): 1 (11.1) n (%) | TEAE Muscle spasms, All grades (Total, N = 9): 1 (11.1) n (%) | TEAE Muscle spasms, Grade ≥ 3 (Total, N = 9): 0 n (%) | TEAE Musculoskeletal and connective tissue disorders (SOC), All grades (Total, N = 9): 4 (44.4) n (%) | TEAE Musculoskeletal and connective tissue disorders (SOC), Grade ≥ 3 (Total, N = 9): 0 n (%) | TEAE Nasopharyngitis, All grades (Total, N = 9): 5 (55.6) n (%) | TEAE Nasopharyngitis, Grade ≥ 3 (Total, N = 9): 0 n (%) | TEAE Nausea, All grades (Total, N = 9): 3 (33.3) n (%) | TEAE Nausea, Grade ≥ 3 (Total, N = 9): 0 n (%) | TEAE Nervous system disorders (SOC), All grades (Total, N = 9): 1 (11.1) n (%) | TEAE Nervous system disorders (SOC), Grade ≥ 3 (Total, N = 9): 0 n (%) | TEAE Neutrophil count decreased, All grades (Total, N = 9): 8 (88.9) n (%) | TEAE Neutrophil count decreased, Grade ≥ 3 (Total, N = 9): 5 (55.6) n (%) | TEAE Oral herpes, All grades (Total, N = 9): 1 (11.1) n (%) | TEAE Oral herpes, Grade ≥ 3 (Total, N = 9): 0 n (%) | TEAE Organizing pneumonia, All grades (Total, N = 9): 1 (11.1) n (%) | TEAE Organizing pneumonia, Grade ≥ 3 (Total, N = 9): 1 (11.1) n (%) | TEAE Oropharyngeal pain, All grades (Total, N = 9): 2 (22.2) n (%) | TEAE Oropharyngeal pain, Grade ≥ 3 (Total, N = 9): 0 n (%) | TEAE Pancreatitis, All grades (Total, N = 9): 1 (11.1) n (%) | TEAE Pancreatitis, Grade ≥ 3 (Total, N = 9): 1 (11.1) n (%) | TEAE Pharyngeal paresthesia, All grades (Total, N = 9): 1 (11.1) n (%) | TEAE Pharyngeal paresthesia, Grade ≥ 3 (Total, N = 9): 0 n (%) | TEAE Pruritus, All grades (Total, N = 9): 1 (11.1) n (%) | TEAE Pruritus, Grade ≥ 3 (Total, N = 9): 0 n (%) | TEAE Psychiatric disorders (SOC), All grades (Total, N = 9): 1 (11.1) n (%) | TEAE Psychiatric disorders (SOC), Grade ≥ 3 (Total, N = 9): 0 n (%) | TEAE Rash maculopapular, All grades (Total, N = 9): 5 (55.6) n (%) | TEAE Rash maculopapular, Grade ≥ 3 (Total, N = 9): 1 (11.1) n (%) | TEAE Rash, All grades (Total, N = 9): 4 (44.4) n (%) | TEAE Rash, Grade ≥ 3 (Total, N = 9): 0 n (%) | TEAE Renal and urinary disorders (SOC), All grades (Total, N = 9): 1 (11.1) n (%) | TEAE Renal and urinary disorders (SOC), Grade ≥ 3 (Total, N = 9): 0 n (%) | TEAE Renal impairment, All grades (Total, N = 9): 1 (11.1) n (%) | TEAE Renal impairment, Grade ≥ 3 (Total, N = 9): 0 n (%) | TEAE Respiratory, thoracic, and mediastinal disorders (SOC), All grades (Total, N = 9): 4 (44.4) n (%) | TEAE Respiratory, thoracic, and mediastinal disorders (SOC), Grade ≥ 3 (Total, N = 9): 1 (11.1) n (%) | TEAE Skin and subcutaneous tissue disorders (SOC), All grades (Total, N = 9): 9 (100.0) n (%) | TEAE Skin and subcutaneous tissue disorders (SOC), Grade ≥ 3 (Total, N = 9): 1 (11.1) n (%) | TEAE Stomatitis, All grades (Total, N = 9): 2 (22.2) n (%) | TEAE Stomatitis, Grade ≥ 3 (Total, N = 9): 1 (11.1) n (%) | TEAE Subcutaneous abscess, All grades (Total, N = 9): 1 (11.1) n (%) | TEAE Subcutaneous abscess, Grade ≥ 3 (Total, N = 9): 0 n (%) | TEAE Tinnitus, All grades (Total, N = 9): 1 (11.1) n (%) | TEAE Tinnitus, Grade ≥ 3 (Total, N = 9): 0 n (%) | TEAE Urticaria, All grades (Total, N = 9): 1 (11.1) n (%) | TEAE Urticaria, Grade ≥ 3 (Total, N = 9): 0 n (%) | TEAE Vomiting, All grades (Total, N = 9): 2 (22.2) n (%) | TEAE Vomiting, Grade ≥ 3 (Total, N = 9): 0 n (%) | TEAE WBC count decreased, All grades (Total, N = 9): 4 (44.4) n (%) | TEAE WBC count decreased, Grade ≥ 3 (Total, N = 9): 0 n (%) | discontinued treatment due to TEAEs (cohort 1, 45 mg/day): 2 patients | discontinued treatment due to TEAEs (cohort 2, 60 mg/day): 2 patients | discontinuation due to irAEs (during IDT): no discontinuation due to irAEs occurred during IDT | recurrence of Grade ≥ 3 irAEs and any grade irAEs leading to drug interruption (during IDT): 4/8
